From US20100003246A1, “Novel heterocyclic compounds and uses therof” (priority 2008, published 2010)

These compounds were tested against T1, b-Raf(V600E) (Homo sapiens, UniProt P15056, V600E) (assay: Raf/Mek Amplified Luminescence Proximity Homogeneous Assay (Alpha Screen), b-Raf(V600E)). Conditions: mutant b-Raf(V600E), read-out: mut-b-RAF (IC50 in uM).
T1 construct: made in house
Type: biochemical
Procedure: Assay buffer: 50 mM Tris, pH 7.5, 15 mM MgCl2, 0.01% BSA, 1 mM DTT Stop buffer: 60 mM EDTA, 0.01% Tween20 Bead buffer: 50 mM Tris, pH 7.5, 0.01% Tween20
b-Raf(V600E), active: Recombinant in-house material biotinylated Mek, kinase dead: Recombinant in-house material Alpha Screen detection kit PerkinElmer, #6760617R Anti phospho-MEK½ Cell signaling #9121 384 well assay plates: White Greiner plates, #781207
b-Raf(V600E) approximately 4 pM c-Raf approximately 4 nM biotinylated Mek, Kinase dead approximately 10 nM
Pre-incubation time with compounds 60 min at room temperature Reaction time 1 or 3 hours at room temperature
Raf and biotinylated Mek, kinase dead, were combined at 2× final concentrations in assay buffer (50 mM Tris, pH 7.5, 15 mM MgCl2, 0.01% BSA and 1 mM DTT) and dispensed 10 μl per well in assay plates (Greiner white 384 well assay plates #781207) containing 0.5 μl of 40× of a raf kinase inhibitor test compound diluted in 100% DMSO. The plate was incubated for 60 min at room temperature.
The Raf kinase activity reaction was started by the addition of 10 μl per well of 2×ATP diluted in assay buffer. After 3 hours (bRaf(V600E)) or 1 hour (c-Raf), the reactions were stopped with the addition of 10 μl of stop reagent (60 mM EDTA). Phosphorylated product was measured using a rabbit anti-p-MEK (Cell Signaling, #9121) antibody and the Alpha Screen IgG (Protein A) detection Kit (PerkinElmer #6760617R), by the addition of 30 μL to the well of a mixture of the antibody (1:2000 dilution) and detection beads (1:2000 dilution of both beads) in bead buffer (50 mM Tris, pH 7.5, 0.01% Tween20). The additions were carried out under dark conditions to protect the detection beads from light. A lid was placed on top of the plate and incubated for 1 hour at room temperature, then the luminescence was read on a PerkinElmer Envision instrument. The concentration of each compound for 50% inhibition (IC50) was calculated by non-linear regression using XL Fit data analysis software.
The Raf/Mek Amplified Luminescence Proximity Homogeneous Assay described was used to generate the luminescence and mutant b-Raf(V600E) IC50 data for selected Raf Kinase Inhibitors shown in Table 1 above.

T1 sequence (P15056 whole entry V600E): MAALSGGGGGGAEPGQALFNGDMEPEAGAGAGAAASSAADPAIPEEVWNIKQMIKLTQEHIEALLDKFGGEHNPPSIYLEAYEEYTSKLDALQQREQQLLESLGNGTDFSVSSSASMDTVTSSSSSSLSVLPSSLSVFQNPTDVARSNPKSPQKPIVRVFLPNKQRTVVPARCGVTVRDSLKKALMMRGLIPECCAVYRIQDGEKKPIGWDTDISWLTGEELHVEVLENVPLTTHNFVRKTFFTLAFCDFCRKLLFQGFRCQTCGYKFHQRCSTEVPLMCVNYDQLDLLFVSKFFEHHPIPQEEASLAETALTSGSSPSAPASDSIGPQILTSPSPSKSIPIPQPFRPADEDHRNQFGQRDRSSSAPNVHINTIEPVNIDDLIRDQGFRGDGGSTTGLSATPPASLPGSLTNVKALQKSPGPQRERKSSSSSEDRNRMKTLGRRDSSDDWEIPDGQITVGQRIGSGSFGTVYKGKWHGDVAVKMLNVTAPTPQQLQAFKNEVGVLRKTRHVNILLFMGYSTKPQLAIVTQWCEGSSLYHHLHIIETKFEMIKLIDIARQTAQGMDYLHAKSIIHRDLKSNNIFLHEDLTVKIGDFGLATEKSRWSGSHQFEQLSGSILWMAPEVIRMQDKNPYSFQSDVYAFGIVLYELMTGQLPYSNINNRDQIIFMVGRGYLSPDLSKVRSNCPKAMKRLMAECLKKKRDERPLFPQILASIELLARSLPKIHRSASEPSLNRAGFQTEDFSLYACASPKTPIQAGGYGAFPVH

| IC50 [µM] | Structure (SMILES) |
| --- | --- |
| 0.058 | Nc1n[nH]c2cc(-c3[nH]c(-c4ccccc4)nc3-c3ccncc3)ccc12 [Compound 24, 6-(2-phenyl-4-(pyridin-4-yl)-1H-imidazol-5-yl)-1H-indazol-3-amine] |
| 0.489 | Nc1ncc(-c2[nH]c(-c3ccccc3)nc2-c2ccncc2)cn1 [Compound 25, 5-(2-phenyl-4-(pyridin-4-yl)-1H-imidazol-5-yl)pyrimidin-2-amine] |
| 0.173 | Nc1n[nH]c2ccc(-c3[nH]c(-c4ccccc4)nc3-c3ccncc3)cc12 [Compound 26, 5-(2-phenyl-4-(pyridin-4-yl)-1H-imidazol-5-yl)-1H-indazol-3-amine] |
| 0.417 | Nc1cc(-c2[nH]c(-c3ccccc3)nc2-c2ccncc2)ccn1 [Compound 27, 4-(2-phenyl-4-(pyridin-4-yl)-1H-imidazol-5-yl)pyridin-2-amine] |
| 0.449 | CC(=O)Nc1n[nH]c2cc(-c3[nH]c(-c4ccccc4)nc3-c3ccncc3)ccc12 [Compound 28, N-(6-(2-phenyl-4-(pyridin-4-yl)-1H-imidazol-5-yl)-1H-indazol-3-yl)acetamide] |
| 0.26 | Nc1ccc(-c2[nH]c(-c3ccccc3)nc2-c2ccncc2)cn1 [Compound 29, 5-(2-phenyl-4-(pyridin-4-yl)-1H-imidazol-5-yl)pyridin-2-amine] |
| 0.528 | Nc1n[nH]c2cc(-c3[nH]c(-c4ccccc4)nc3-c3ccncc3)cc(F)c12 [Compound 30, 4-fluoro-6-(2-phenyl-4-(pyridin-4-yl)-1H-imidazol-5-yl)-1H-indazol-3-amine] |
| 0.017 | c1ccc(-c2nc(-c3ccncc3)c(-c3ccc4cn[nH]c4c3)[nH]2)cc1 [Compound 32, 6-(2-phenyl-4-(pyridin-4-yl)-1H-imidazol-5-yl)-1H-indazole] |
| 0.054 | c1ccc(-c2nc(-c3ccncc3)c(-c3ccc4cc[nH]c4c3)[nH]2)cc1 [Compound 33, 6-(2-phenyl-4-(pyridin-4-yl)-1H-imidazol-5-yl)-1H-indole] |
| 0.005 | c1ccc(-c2nc(-c3ccncc3)c(-c3ccc4cnoc4c3)[nH]2)cc1 [Compound 34, 6-(2-phenyl-4-(pyridin-4-yl)-1H-imidazol-5-yl)benzo[d]isoxazole] |
| 0.099 | Cc1n[nH]c2ccc(-c3[nH]c(-c4ccccc4)nc3-c3ccncc3)cc12 [Compound 35, 3-methyl-5-(2-phenyl-4-(pyridin-4-yl)-1H-imidazol-5-yl)-1H-indazole] |
| 0.013 | COc1cncc(-c2[nH]c(-c3ccccc3)nc2-c2ccncc2)c1 [Compound 36, 3-methoxy-5-(2-phenyl-4-(pyridin-4-yl)-1H-imidazol-5-yl)pyridine] |
| 0.387 | Nc1ccc(-c2[nH]c(-c3ccccc3)nc2-c2ccncc2)c(F)n1 [Compound 37, 6-fluoro-5-(2-phenyl-4-(pyridin-4-yl)-1H-imidazol-5-yl)pyridin-2-amine] |
| 0.006 | COc1nc(-c2[nH]c(-c3ccccc3)nc2-c2ccncc2)cnc1N [Compound 39, 3-methoxy-5-(2-phenyl-4-(pyridin-4-yl)-1H-imidazol-5-yl)pyrazin-2-amine] |
| 0.502 | COc1cc(N)ncc1-c1[nH]c(-c2ccccc2)nc1-c1ccncc1 [Compound 40, 4-methoxy-5-(2-phenyl-4-(pyridin-4-yl)-1H-imidazol-5-yl)pyridin-2-amine] |
| 0.349 | COc1ncc(-c2[nH]c(-c3ccccc3)nc2-c2ccncc2)cc1N [Compound 42, 2-methoxy-5-(2-phenyl-4-(pyridin-4-yl)-1H-imidazol-5-yl)pyridin-3-amine] |
| 0.025 | CNc1ncc(-c2[nH]c(-c3ccccc3)nc2-c2ccncc2)cc1OC [Compound 43, 3-methoxy-N-methyl-5-(2-phenyl-4-(pyridin-4-yl)-1H-imidazol-5-yl)pyridin-2-amine] |
| 0.465 | Oc1ccc(-c2[nH]c(-c3ccccc3)nc2-c2ccncc2)cn1 [Compound 44, 5-(2-phenyl-4-(pyridin-4-yl)-1H-imidazol-5-yl)pyridin-2-ol] |

| IC50 [µM] | Structure (SMILES) |
| --- | --- |
| 0.0046 | c1ccc(-c2nc(-c3ccncc3)c(-c3cnc4[nH]ccc4c3)[nH]2)cc1 [Compound 45, 5-(2-phenyl-4-(pyridin-4-yl)-1H-imidazol-5-yl)-1H-pyrrolo[2,3-b]pyridine] |
| 0.0287 | Nc1ncc(-c2[nH]c(-c3ccccc3)nc2-c2ccncc2)cc1Cl [Compound 46, 3-chloro-5-(2-phenyl-4-(pyridin-4-yl)-1H-imidazol-5-yl)pyridin-2-amine] |
| 0.885 | O=C1CCc2cc(-c3[nH]c(-c4ccccc4)nc3-c3ccncc3)cnc2N1 [Compound 47, 6-(2-phenyl-4-(pyridin-4-yl)-1H-imidazol-5-yl)-3,4-dihydro-1,8-naphthyridin-2(1H)-one] |
| 0.12 | COc1cc(-c2nc(-c3ccccc3)[nH]c2-c2ccnc(C)c2)cnc1N [Compound 48, 3-methoxy-5-(5-(2-methylpyridin-4-yl)-2-phenyl-1H-imidazol-4-yl)pyridin-2-amine] |
| 0.0222 | c1ccc(-c2nc(-c3ccncc3)c(-c3cnc4[nH]ncc4c3)[nH]2)cc1 [Compound 49, 5-(2-phenyl-4-(pyridin-4-yl)-1H-imidazol-5-yl)-1H-pyrazolo[3,4-b]pyridine] |
| 0.259 | COc1nc(-c2[nH]c(C)nc2-c2ccncc2)cnc1N [Compound 50, 3-methoxy-5-(2-methyl-4-(pyridin-4-yl)-1H-imidazol-5-yl)pyrazin-2-amine] |
| 0.0196 | COc1cc(-c2[nH]c(C)nc2-c2ccncc2)cnc1N [Compound 51, 3-methoxy-5-(2-methyl-4-(pyridin-4-yl)-1H-imidazol-5-yl)pyridin-2-amine] |
| 0.0123 | c1ccc(-c2nc(-c3ccncc3)c(-c3cnc4c(c3)CCN4)[nH]2)cc1 [Compound 52, 5-(2-phenyl-4-(pyridin-4-yl)-1H-imidazol-5-yl)-2,3-dihydro-1H-pyrrolo[2,3-b]pyridine] |
| 0.29 | c1ccc(-c2nc(-c3ccncc3)c(-c3cnc4[nH]cnc4c3)[nH]2)cc1 [Compound 53, 6-(2-phenyl-4-(pyridin-4-yl)-1H-imidazol-5-yl)-3H-imidazo[4,5-b]pyridine] |
| 0.0098 | COc1cc(-c2nc(-c3ccccc3)[nH]c2-c2ccnc(N)c2)cnc1N [Compound 55, 5-(5-(2-aminopyridin-4-yl)-2-phenyl-1H-imidazol-4-yl)-3-methoxypyridin-2-amine] |
| 0.0029 | CNc1nccc(-c2[nH]c(-c3ccccc3)nc2-c2cnc(N)c(OC)c2)n1 [Compound 56, 4-(4-(6-amino-5-methoxypyridin-3-yl)-2-phenyl-1H-imidazol-5-yl)-N-methylpyrimidin-2-amine] |
| 0.62 | c1ccc(-c2nc(-c3ccncc3)c(-c3ccsc3)[nH]2)cc1 [Compound 57, 4-(2-phenyl-5-(thiophen-3-yl)-1H-imidazol-4-yl)pyridine] |
| 0.0002 | COc1cc(-c2[nH]c(-c3ccccc3)nc2-c2ccnc(N[C@@H]3CCCN(S(=O)(=O)c4ccc(Cl)cc4)C3)n2)cnc1N [Compound 58, (R)-4-(5-(6-amino-5-methoxypyridin-3-yl)-2-phenyl-1H-imidazol-4-yl)-N-(1-(4-chlorophenylsulfonyl)piperidin-3-yl)pyrimidin-2-amine] |
| 0.68 | c1ccc(-c2nc(-c3ccncc3)c(-c3cnc4c(n3)CCN4)[nH]2)cc1 [Compound 59, 2-(2-phenyl-4-(pyridin-4-yl)-1H-imidazol-5-yl)-6,7-dihydro-5H-pyrrolo[3,2-b]pyrazine] |
| 0.0049 | COc1cc(-c2nc(-c3ccccc3)[nH]c2-c2ccncn2)cnc1N [Compound 61, 3-methoxy-5-(2-phenyl-5-(pyrimidin-4-yl)-1H-imidazol-4-yl)pyridin-2-amine] |
| 0.0003 | COc1cc(-c2[nH]c(-c3ccccc3)nc2-c2ccnc(N[C@H]3CCCN(S(=O)(=O)c4ccc(Cl)cc4)C3)n2)cnc1N [Compound 62, (S)-4-(5-(6-amino-5-methoxypyridin-3-yl)-2-phenyl-1H-imidazol-4-yl)-N-(1-(4-chlorophenylsulfonyl)piperidin-3-yl)pyrimidin-2-amine] |
| 0.641 | COc1cc(-c2nc(-c3ccccc3)[nH]c2-c2ccnc(N(C)C)n2)cnc1N [Compound 63, 4-(4-(6-amino-5-methoxypyridin-3-yl)-2-phenyl-1H-imidazol-5-yl)-N,N-dimethylpyrimidin-2-amine] |
| 0.0003 | COc1cc(-c2ccc(S(=O)(=O)N3CCC[C@@H](Nc4nccc(-c5nc(-c6ccccc6)[nH]c5-c5cnc(N)c(OC)c5)n4)C3)cc2)cnc1N [Compound 64, (R)-4-(5-(6-amino-5-methoxypyridin-3-yl)-2-phenyl-1H-imidazol-4-yl)-N-(1-(4-(6-amino-5-methoxypyridin-3-yl)phenylsulfonyl)piperidin-3-yl)pyrimidin-2-amine] |
